Measured values reported in patent US7189720B2 (H. Lundbeck A/S, priority 1999, dated 2007).

Each molecule was assayed against T1, human Y5 receptor (Homo sapiens, UniProt Q15761) (assay: Radioligand binding to membranes, cloned human Y5 receptor). Details: Table 1; read-out: Ki (nM) hNPY-5.
T1 construct: expressed in transfected cells; host or cells: mouse fibroblast LM(tk-) cells, e.g. L-hY5-7 (ATCC CRL-11995)
T1 sequence (Q15761 1-445): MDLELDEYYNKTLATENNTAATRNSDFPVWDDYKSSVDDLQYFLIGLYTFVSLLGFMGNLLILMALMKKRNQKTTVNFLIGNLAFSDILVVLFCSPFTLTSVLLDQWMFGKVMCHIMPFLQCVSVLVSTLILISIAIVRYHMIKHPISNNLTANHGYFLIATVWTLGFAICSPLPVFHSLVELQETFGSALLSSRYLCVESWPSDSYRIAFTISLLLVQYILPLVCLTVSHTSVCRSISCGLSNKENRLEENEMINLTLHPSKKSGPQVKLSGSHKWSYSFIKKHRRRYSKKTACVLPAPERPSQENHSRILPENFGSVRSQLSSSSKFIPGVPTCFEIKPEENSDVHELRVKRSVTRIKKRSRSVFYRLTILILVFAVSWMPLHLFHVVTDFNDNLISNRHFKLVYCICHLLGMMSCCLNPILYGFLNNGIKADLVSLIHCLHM

| Ki [nM] | Structure (SMILES) |
| --- | --- |
| 12 | C=CCNc1nc(NCC2CCC(CNS(=O)(=O)c3cccc4ccccc34)CC2)nc(NC(C)C)n1 (centres unmarked) [Example 3, N1-{[4-({[4-(Allylamino)-6-(isopropylamino)-1,3,5-triazin-2-yl]amino}methyl)cyclohexyl]methyl}-1-naphthalenesulfonamide] |
| 22 | CC(C)Nc1nc(NCC2CCC(CNS(=O)(=O)c3cccc4ccccc34)CC2)nc(N2CCN(C(C)C)CC2)n1 (centres unmarked) [Example 28, N1-{[4-({[4-(isopropylamino)-6-(4-isopropylpiperazino)-1,3,5-triazin-2-yl]amino}methyl)cyclohexyl]methyl}-1-naphthalenesulfonamide] |
| 313 | COc1ccc(CCNc2nc(NCC3CCC(CNS(=O)(=O)c4cccc5ccccc45)CC3)nc(NC(C)C)n2)cc1 (centres unmarked) [Example 16, N1-({4-[({4-(isopropylamino)-6-[(4-methoxyphenethyl)amino]-1,3,5-triazin-2-yl}amino)methyl]cyclohexyl}methyl)-1-naphthalenesulfonamide] |
| 9 | CC(C)Nc1nc(NCC2CCC(CNS(=O)(=O)c3cccc4ccccc34)CC2)nc(NC2CC2)n1 (centres unmarked) [Example 8, N1-[4-([4-(cyclopropylamino)-6-(isopropylamino)-1,3,5-triazin-2-yl]aminomethyl)cyclohexyl]methyl-1-naphthalenesulfonamide] |
| 32 | CCN(C)c1nc(NCC2CCC(CNS(=O)(=O)c3cccc4ccccc34)CC2)nc(NC(C)C)n1 (centres unmarked) [Example 18, N1-[4-([4-[ethyl(methyl)amino]-6-(isopropylamino)-1,3,5-triazin-2-yl]aminomethyl)cyclohexyl]methyl-1-naphthalenesulfonamide] |
| 81 | CC(C)Nc1nc(NCCC#N)nc(NCC2CCC(CNS(=O)(=O)c3cccc4ccccc34)CC2)n1 (centres unmarked) [Example 10, N1-[4-([4-[(2-cyanoethyl)amino]-6-(isopropylamino)-1,3,5-triazin-2-yl]aminomethyl)cyclohexyl]methyl-1-naphthalenesulfonamide] |
| 31 | CC(=O)N1CCN(c2nc(NCC3CCC(CNS(=O)(=O)c4cccc5ccccc45)CC3)nc(NC(C)C)n2)CC1 (centres unmarked) [Example 27, N1-{[4-({[4-(4-acetylpiperazino)-6-(isopropylamino)-1,3,5-triazin-2-yl]amino}methyl)cyclohexyl]methyl}-1-naphthalenesulfonamide] |

Same assay, conditions: Table 2; read-out: Ki (nM) hNPY-5

| Ki [nM] | Structure (SMILES) |
| --- | --- |
| 5 | CCNc1nc(NCC)nc(NCC2CCC(CNS(=O)(=O)c3ccc4nsnc4c3)CC2)n1 (centres unmarked) [Example 40, N5-[4-([4,6-di(ethylamino)-1,3,5-triazin-2-yl]aminomethyl)cyclohexyl]methyl-2,1,3-benzothiadiazole-5-sulfonamide] |

Same assay, conditions: Table 3; read-out: Ki (nM) hNPY-5

| Ki [nM] | Structure (SMILES) |
| --- | --- |
| 209 | O=S(=O)(NCC1CCC(CNc2nc(NC3CC3)nc(-c3ccccn3)n2)CC1)c1ccc(F)cc1 (centres unmarked) [Example 55, N1-[4-([4-(cyclopropylamino)-6-(2-pyridyl)-1,3,5-triazin-2-yl]aminomethyl)cyclohexyl]methyl-4-fluoro-1-benzenesulfonamide] |
| 359 | CC(C)Nc1nc(NCC2CCC(CNS(=O)(=O)NC3CC3)CC2)nc(NC2CC2)n1 (centres unmarked) [Example 47, N-cyclopropyl-N′-[4-([4-(cyclopropylamino)-6-(isopropylamino)-1,3,5-triazin-2-yl]aminomethyl)cyclohexyl]methylsulfamide] |
| 3540 | CC(C)Nc1nc(Cl)nc(NCC2CCC(CNS(=O)(=O)c3ccc(C(C)(C)C)cc3)CC2)n1 (centres unmarked) [Example 51, N1-[4-([4-chloro-6-(isopropylamino)-1,3,5-triazin-2-yl]aminomethyl)cyclohexyl]methyl-4-(tert-butyl)-1-benzenesulfonamide] |

Same assay, conditions: Table 4; read-out: Ki (nM) hNPY-5

| Ki [nM] | Structure (SMILES) |
| --- | --- |
| > 100000 | CCNc1nc(NCC)nc(NCc2ccccn2)n1 [Example 58, N2,N4-diethyl-N6-(2-pyridylmethyl)-1,3,5-triazine-2,4,6-triamine] |

Same assay, conditions: Table 5; read-out: Ki, nM hNPY-5

| Ki [nM] | Structure (SMILES) |
| --- | --- |
| 3.6 | COc1ccc(C)cc1S(=O)(=O)NCCCCCNc1nc(-c2nc(C)sc2C)cs1 [Example 93, N1-(5-[4-(2,5-Dimethyl-1,3-thiazol-4-yl)-1,3-thiazol-2-yl]aminopentyl)-2-methoxy-5-methyl-1-benzenesulfonamide] |
| 8.1 | Cc1nc(-c2csc(NCCCCCNS(=O)(=O)N(C)C)n2)c(C)s1 [Example 96, N′-(5-[4-(2,5-Dimethyl-1,3-thiazol-4-yl)-1,3-thiazol-2-yl]aminopentyl)-N,N-dimethylsulfamide] |
| 42 | O=S(=O)(NCCCCCNc1nc(-c2ccccn2)cs1)c1ccc(F)c(F)c1 [Example 64, 2-(5-(3,4-Difluorophenyl)sulfonylamino)pentylamino-4-(2-pyridyl)thiazole hydrogen chloride] |
| 72 | Cc1nc(-c2csc(NC[C@H]3CC[C@H](N(C=O)C(C)C)CC3)n2)c(C)s1 [Example 102, trans-N-[4-([4-(2,5-Dimethyl-1,3-thiazol-4-yl)-1,3-thiazol-2-yl]aminomethyl)cyclohexyl]-N-isopropylformamide] |
| 33 | COc1ccc(S(=O)(=O)NCCCCCNc2nc(-c3ccccn3)cs2)cc1 [Example 62, 2-(5-(4-Methoxyphenyl)sulfonylamino)pentylamino-4-(2-pyridyl)thiazole hydrogen chloride] |

Same assay, conditions: Table 6; read-out: Ki, nM hNPY-5

| Structure (SMILES) | Ki [nM] |
| --- | --- |
| O=S(=O)(Cc1ccccc1)NC[C@H]1CC[C@H](Nc2nc3c(s2)CCSc2ccccc2-3)CC1 [Example 153, N-{[4-(4,5-Dihydrobenzo[2,3]thiepino[4,5-d][1,3]thiazol-2-ylamino)cyclohexyl]methyl}phenyl-methanesulfonamide] | 8.9 |
| O=S(=O)(NC[C@H]1CC[C@H](Nc2nc3c(s2)CCSc2ccccc2-3)CC1)c1cccs1 [Example 108, N2-{[4-(4,5-Dihydrobenzo[2,3]thiepino[4,5-d][1,3]thiazol-2-ylamino)cyclohexyl]methyl}-2-thiophenesulfonamide] | 5.1 |
| O=S(=O)(NC[C@H]1CC[C@H](Nc2nc3c(s2)CCSc2ccccc2-3)CC1)c1c(Cl)cccc1Cl [Example 152, N1-{[4-(4,5-Dihydrobenzo[2,3]thiepino[4,5-d][1,3]thiazol-2-ylamino)cyclohexyl]methyl}-2,6-dichloro-1-benzenesulfonamide] | 17.4 |
| O=S(=O)(NC[C@H]1CC[C@H](Nc2nc3c(s2)CCSc2ccccc2-3)CC1)c1ccc(-c2ccccn2)s1 [Example 120, N2-{[4-(4,5-Dihydrobenzo[2,3]thiepino[4,5-d][1,3]thiazol-2-ylamino)cyclohexyl]methyl}-5-(2-pyridyl)-2-thiophenesulfonamide] | 54 |

More lines, now with the values ahead:

| Ki [nM] | Structure (SMILES) |
| --- | --- |
| 100 | O=C(NCCCCCNc1nc2c(s1)CCSc1ccccc1-2)c1ccc2ccccc2c1 [Example 142, N2-[5-(4,5-Dihydrobenzo[2,3]thiepino[4,5-d][1,3]thiazol-2-ylamino)pentyl]-2-naphthamide] |
| 3.6 | CCCS(=O)(=O)NCCCCCCNc1nc2c(s1)CCSc1ccccc1-2 [Example 143, N1-[6-(4,5-Dihydrobenzo[2,3]thiepino[4,5-d][1,3]thiazol-2-ylamino)hexyl]-1-propanesulfonamide] |
| 5.2 | O=[N+]([O-])c1ccccc1S(=O)(=O)NCCCCCNc1nc2c(s1)CCSc1ccccc1-2 [Example 130, N1-[5-(4,5-Dihydrobenzo[2,3]thiepino[4,5-d][1,3]thiazol-2-ylamino)pentyl]-2-nitro-1-benzenesulfonamide] |
| 7.9 | COc1cccc(Br)c1S(=O)(=O)NCCCCCCNc1nc2c(s1)CCSc1ccccc1-2 [Example 147, N1-[6-(4,5-Dihydrobenzo[2,3]thiepino[4,5-d][1,3]thiazol-2-ylamino)hexyl]-2-bromo-6-methoxy-1-benzenesulfonamide] |
| 84 | O=C(NCCCCCNc1nc2c(s1)CCSc1ccccc1-2)c1cccs1 [Example 141, N2-[5-(4,5-Dihydrobenzo[2,3]thiepino[4,5-d][1,3]thiazol-2-ylamino)pentyl]-2-thiophenecarboxamide] |
| 110 | Cc1cccc(F)c1S(=O)(=O)NCCCCNc1nc2c(s1)CCSc1ccccc1-2 [Example 135, N1-[4-(4,5-dihydrobenzo[2,3]thiepino[4,5-d][1,3]thiazol-2-ylamino)butyl]-2-fluoro-6-methyl-1-benzenesulfonamide] |
| 6.5 | O=S(=O)(NCCCCCNc1nc2c(s1)CCSc1ccccc1-2)c1ccc(F)cc1F [Example 137, N1-[5-(4,5-Dihydrobenzo[2,3]thiepino[4,5-d][1,3]thiazol-2-ylamino)pentyl]-2,4-difluoro-1-benzenesulfonamide] |
| 5.4 | CCS(=O)(=O)NCCCCCCNc1nc2c(s1)CCSc1ccccc1-2 [Example 105, N1-[6-(4,5-Dihydrobenzo[2,3]thiepino[4,5-d][1,3]thiazol-2-ylamino)hexyl]-1-ethanesulfonamide] |
| 122 | CN(C)C(=O)NCCCCCNc1nc2c(s1)CCSc1ccccc1-2 [Example 139, N′-[5-(4,5-Dihydrobenzo[2,3]thiepino[4,5-d][1,3]thiazol-2-ylamino)pentyl]-N,N-dimethylurea] |
| 10.5 | O=S(=O)(Cc1ccccc1)NCCCCCCNc1nc2c(s1)CCSc1ccccc1-2 [Example 148, N-[6-(4,5-Dihydrobenzo[2,3]thiepino[4,5-d][1,3]thiazol-2-ylamino)hexyl]phenylmethane-sulfonamide] |
| 161 | CN(C)c1cccc2c(S(=O)(=O)NCCCCCNc3nc4c(s3)CCSc3ccccc3-4)cccc12 [Example 123, N1-[5-(4,5-Dihydrobenzo[2,3]thiepino[4,5-d][1,3]thiazol-2-ylamino)pentyl]-5-(dimethylamino)-1 naphthalenesulfonamide] |
